Laboratory results as given in ChEMBL document CHEMBL5316284, “Structural Determinants of Indole-2-carboxamides: Identification of Lead Acetamides with Pan Antimycobacterial Activity” (J Med Chem, 2023).
Converted amounts (≈) assume the structure as drawn.

How the values were obtained:
[1] = test system: Mycobacterium tuberculosis; experiment: Antimycobacterial activity against Mycobacterium tuberculosis H37Rv mc2 6206 assessed as inhibition of bacterial growth measured after 7 days by visual analysis; format: functional; conditions: H37Rv mc2 6206, 168 h, time 7 day
[2] = test system: Mycobacteroides abscessus; experiment: Antimycobacterial activity against Mycobacterium abscessus […] assessed as inhibition of bacterial growth measured after 5 days by visual analysis; format: functional; conditions: 120 h, time 5 day
[3] = Permeability of the compound by PAMPA method; format: ADME
[4] = Selectivity index, ratio of IC50 for Cytotoxicity against human WI26VA4 cells to MIC for antimycobacterial activity against Mycobacterium tuberculosis H37Rv mc2 6206; format: toxicity, cell-based; conditions: read-out: Selectivity Index
[5] = Selectivity index, ratio of IC50 for Cytotoxicity against human WI26VA4 cells to MIC for antimycobacterial activity against Mycobacterium abscessus […]; format: toxicity, cell-based; conditions: read-out: Selectivity Index
[6] = Cytotoxicity against human WI26VA4 cells assessed as inhibition of cell growth measured after 72 hrs by MTT assay; format: toxicity, cell-based
[7] = Plasma protein binding in human at 10 ug/ml incubated for 4 hrs under shaking condition by LC/MS/MS analysis; format: ADME, cell-free; conditions: at 10 µg/mL, read-out: PPB (converted)
[8] = Metabolic stability in human liver S9 fraction assessed as parent compound remaining at 5 ug/ml after 90 mins in presence of NADPH by LC/MS analysis; format: ADME, subcellular; conditions: s9, 1.5 h, dose 5 µg/ml
[9] = Kinetic solubility of compound at pH 7.4 incubated for 6 hrs by LC-MS/MS analysis; format: physicochemical; conditions: buffer, read-out: Kinetic_solubility
[10] = Metabolic stability in mouse liver S9 fraction assessed as parent compound remaining at 5 ug/ml after 90 mins in presence of NADPH by LC/MS analysis; format: ADME, subcellular; conditions: s9, 1.5 h, dose 5 µg/ml
[11] = test system: Mycobacterium intracellulare; experiment: Antimycobacterial activity against Mycobacterium intracellulare 1956 assessed as inhibition of bacterial growth by visual analysis; format: functional
[12] = test system: Mycobacterium intracellulare subsp. chimaera; experiment: Antimycobacterial activity against Mycobacterium intracellulare subsp. chimaera 1501948 assessed as inhibition of bacterial growth by visual analysis; format: functional
Mycobacteroides chelonae = experiment: Antimycobacterial activity against Mycobacteroides chelonae ATCC 35752 assessed as inhibition of bacterial growth by visual analysis; format: functional
[13] = Antimycobacterial activity against Mycobacterium avium subsp. avium 2585R assessed as inhibition of bacterial growth by visual analysis; format: functional
[14] = test system: Mycolicibacterium fortuitum; experiment: Antimycobacterial activity against Mycobacterium fortuitum ATCC 6841 assessed as inhibition of bacterial growth by visual analysis; format: functional
Mycobacterium kansasii = experiment: Antimycobacterial activity against Mycobacterium kansasii ATCC 1279 assessed as inhibition of bacterial growth by visual analysis; format: functional

| SMILES | MIC [1] [µg/mL] | MIC [2] [µg/mL] | further results |
| --- | --- | --- | --- |
| C[C@@H]1[C@H]2C[C@@H](C[C@H]1NC(=O)CNc1ccc(Br)cc1)C2(C)C | 16 (≈ 43.8 µM) | 4 (≈ 10.9 µM) | – |
| O=C(CNc1ccc(Br)cc1)NC12CC3CC(CC(C3)C1)C2 | 8 (≈ 22 µM) | 2 (≈ 5.51 µM) | permeability [3]: 0.28 10^-6 cm/s; selectivity ratio [4]: > 2.5; selectivity ratio [5]: > 10; IC50 [6]: > 20 µg/mL; fraction unbound at 4 h, 10 ug/ml [7]: 0.004; t1/2 [8]: 2.5 h; solubility kinetic at 6 h [9]: 1.3 µg/mL (≈ 3.58 µM); t1/2 [10]: 4 h |
| COc1ccc(NCC(=O)N[C@@H]2C[C@@H]3C[C@H]([C@H]2C)C3(C)C)cc1 | 64 (≈ 202 µM) | 32 (≈ 101 µM) | – |
| O=C(CNc1ccccc1)NC1C2CC3CC(C2)CC1C3 (stereo unspecified) | 16 (≈ 56.3 µM) | > 64 | – |
| O=C(CNc1ccccc1)NC1CCCCCCC1 | 8 (≈ 30.7 µM) | 8 (≈ 30.7 µM) | – |
| C[C@@H]1[C@H]2C[C@@H](C[C@H]1NC(=O)CNc1ccc(Cl)cc1)C2(C)C | 16 (≈ 49.9 µM) | 4 (≈ 12.5 µM) | – |
| O=C(CNc1ccc(Cl)cc1)NC1CCCCCCC1 | 64 (≈ 217 µM) | 32 (≈ 109 µM) | – |
| C[C@@H]1[C@H]2C[C@@H](C[C@H]1NC(=O)CNc1cccc(Br)c1)C2(C)C | 0.5 (≈ 1.37 µM) | 1 (≈ 2.74 µM) | MIC [11]: 8 µg/mL (≈ 21.9 µM); MIC [12]: 16 µg/mL (≈ 43.8 µM); permeability [3]: 1.01 10^-6 cm/s; selectivity ratio [4]: > 40; MIC (Mycobacteroides chelonae): 8 µg/mL (≈ 21.9 µM); selectivity ratio [5]: > 20; MIC [13]: 16 µg/mL (≈ 43.8 µM); IC50 [6]: > 20 µg/mL; fraction unbound at 4 h, 10 ug/ml [7]: 0.045; t1/2 [8]: 4.2 h; MIC [14]: 2 µg/mL (≈ 5.47 µM); solubility kinetic at 6 h [9]: 18.6 µg/mL (≈ 50.9 µM); MIC (Mycobacterium kansasii): 8 µg/mL (≈ 21.9 µM); t1/2 [10]: 5.8 h |
| Cc1ccc(NCC(=O)NC23CC4CC(CC(C4)C2)C3)cc1 | 32 (≈ 107 µM) | 32 (≈ 107 µM) | – |
| COc1ccc(NCC(=O)NC2CCCCCCC2)cc1 | 64 (≈ 220 µM) | > 64 | – |
| C[C@@H]1[C@H]2C[C@@H](C[C@H]1NC(=O)CNc1ccc(OC(F)(F)F)cc1)C2(C)C | 4 (≈ 10.8 µM) | 1 (≈ 2.7 µM) | permeability [3]: 3.19 10^-6 cm/s; selectivity ratio [4]: > 5; selectivity ratio [5]: > 20; IC50 [6]: > 20 µg/mL; fraction unbound at 4 h, 10 ug/ml [7]: 0.048; t1/2 [8]: 9.2 h; solubility kinetic at 6 h [9]: 4.5 µg/mL (≈ 12.1 µM); t1/2 [10]: 4.1 h |
| Cc1ccc(NCC(=O)NC2CCCCCCC2)cc1 | 32 (≈ 117 µM) | > 64 | – |
| O=C(CNc1ccccc1OC(F)(F)F)NC12CC3CC(CC(C3)C1)C2 | 1 (≈ 2.71 µM) | > 64 | – |
| O=C(CNc1ccc(Br)cc1)NC1C2CC3CC(C2)CC1C3 (stereo unspecified) | 4 (≈ 11 µM) | 4 (≈ 11 µM) | – |
| O=C(CNc1ccc(C(F)(F)F)cc1)NC12CC3CC(CC(C3)C1)C2 | 8 (≈ 22.7 µM) | 8 (≈ 22.7 µM) | – |
| O=C(CNc1ccc(Cl)cc1)NC1C2CC3CC(C2)CC1C3 (stereo unspecified) | 64 (≈ 201 µM) | > 64 | – |
| C[C@@H]1[C@H]2C[C@@H](C[C@H]1NC(=O)CNc1ccccc1)C2(C)C | 64 (≈ 223 µM) | > 64 | – |
| O=C(CNc1ccc(C(F)(F)F)cc1)NC1CCCCCCC1 | 32 (≈ 97.4 µM) | 64 (≈ 195 µM) | – |
| O=C(CNc1ccccc1)NC1CCCCCC1 | 64 (≈ 260 µM) | > 64 | – |

| SMILES | MIC [1] [µg/mL] | MIC [2] [µg/mL] | further results |
| --- | --- | --- | --- |
| O=C(CNc1cccc(Cl)c1)NC12CC3CC(CC(C3)C1)C2 | 1 (≈ 3.14 µM) | 1 (≈ 3.14 µM) | permeability [3]: 0.32 10^-6 cm/s; selectivity ratio [4]: > 20; selectivity ratio [5]: > 20; IC50 [6]: > 20 µg/mL; fraction unbound at 4 h, 10 ug/ml [7]: 0.002; t1/2 [8]: 5.6 h; solubility kinetic at 6 h [9]: 30.3 µg/mL (≈ 95 µM); t1/2 [10]: 1.7 h |
| O=C(CNc1ccccc1)NC12CC3CC(CC(C3)C1)C2 | 32 (≈ 113 µM) | 16 (≈ 56.3 µM) | – |
| O=C(CNc1ccc(Cl)cc1)NC12CC3CC(CC(C3)C1)C2 | 16 (≈ 50.2 µM) | 4 (≈ 12.5 µM) | – |
| Cc1ccc(NCC(=O)N[C@H]2CC[C@H](C)CC2)cc1 | 64 (≈ 246 µM) | > 64 | – |
| O=C(CNc1ccc(OC(F)(F)F)cc1)NC1C2CC3CC(C2)CC1C3 (stereo unspecified) | 4 (≈ 10.9 µM) | 2 (≈ 5.43 µM) | permeability [3]: 3.12 10^-6 cm/s; selectivity ratio [4]: > 5; selectivity ratio [5]: > 10; IC50 [6]: > 20 µg/mL; fraction unbound at 4 h, 10 ug/ml [7]: 0.033; t1/2 [8]: 5.9 h; solubility kinetic at 6 h [9]: 20.3 µg/mL (≈ 55.1 µM); t1/2 [10]: 3.7 h |
| O=C(CNc1ccc(C(F)(F)F)cc1)NC1C2CC3CC(C2)CC1C3 (stereo unspecified) | 2 (≈ 5.68 µM) | 4 (≈ 11.4 µM) | permeability [3]: 0.34 10^-6 cm/s; selectivity ratio [4]: > 10; selectivity ratio [5]: > 5; IC50 [6]: > 20 µg/mL; fraction unbound at 4 h, 10 ug/ml [7]: 0.057; t1/2 [8]: 5.8 h; solubility kinetic at 6 h [9]: 23.9 µg/mL (≈ 67.8 µM); t1/2 [10]: 15.6 h |
| O=C(CNc1cccc(Br)c1)NC12CC3CC(CC(C3)C1)C2 | 32 (≈ 88.1 µM) | 1 (≈ 2.75 µM) | permeability [3]: 1.02 10^-6 cm/s; selectivity ratio [4]: > 20; selectivity ratio [5]: > 20; IC50 [6]: > 20 µg/mL; fraction unbound at 4 h, 10 ug/ml [7]: 0.068; t1/2 [8]: 0.5 h; solubility kinetic at 6 h [9]: 22.2 µg/mL (≈ 61.1 µM) |
| COc1ccc(NCC(=O)NC23CC4CC(CC(C4)C2)C3)cc1 | 32 (≈ 102 µM) | 32 (≈ 102 µM) | – |
| C[C@H]1CC[C@H](NC(=O)CNc2ccc(Cl)cc2)CC1 | 64 (≈ 228 µM) | > 64 | – |
| O=C(CNc1ccc(OC(F)(F)F)cc1)NC12CC3CC(CC(C3)C1)C2 | 16 (≈ 43.4 µM) | 2 (≈ 5.43 µM) | permeability [3]: 0.47 10^-6 cm/s; selectivity ratio [4]: > 1.2; selectivity ratio [5]: > 10; IC50 [6]: > 20 µg/mL; fraction unbound at 4 h, 10 ug/ml [7]: 0.002; t1/2 [8]: 3.1 h; solubility kinetic at 6 h [9]: 6.79 µg/mL (≈ 18.4 µM); t1/2 [10]: 4.1 h |
| CNC(=C[N+](=O)[O-])NCCSCc1ccc(CN(C)C)o1 [RANITIDINE] | – | – | permeability [3]: 3.47 10^-6 cm/s; fraction unbound at 4 h, 10 ug/ml [7]: 0.793; solubility kinetic at 6 h [9]: 77.5 µg/mL (≈ 246 µM) |
| Cc1ccc(NCC(=O)N[C@@H]2C[C@@H]3C[C@H]([C@H]2C)C3(C)C)cc1 | 16 (≈ 53.3 µM) | 8 (≈ 26.6 µM) | – |
| COc1ccc(NCC(=O)NC2C3CC4CC(C3)CC2C4)cc1 (stereo unspecified) | 32 (≈ 102 µM) | 32 (≈ 102 µM) | – |
| C[C@@H]1[C@H]2C[C@@H](C[C@H]1NC(=O)CNc1ccc(C(F)(F)F)cc1)C2(C)C | 16 (≈ 45.1 µM) | 32 (≈ 90.3 µM) | – |
| O=C(CNc1ccccc1Cl)NC12CC3CC(CC(C3)C1)C2 | 8 (≈ 25.1 µM) | 16 (≈ 50.2 µM) | – |
| O=C(CNc1ccc(OC(F)(F)F)cc1)NC1CCCCCCC1 | 32 (≈ 92.9 µM) | 8 (≈ 23.2 µM) | – |
| C[C@H]1CC[C@H](NC(=O)CNc2ccccc2)CC1 | 64 (≈ 260 µM) | > 64 | – |
| O=C(CNc1ccccc1Br)NC12CC3CC(CC(C3)C1)C2 | 8 (≈ 22 µM) | 8 (≈ 22 µM) | – |
| Cc1ccc(NCC(=O)NC2C3CC4CC(C3)CC2C4)cc1 (stereo unspecified) | 4 (≈ 13.4 µM) | 16 (≈ 53.6 µM) | – |
